Results: patent publication US10294202B2, “Pyrrolidinones as herbicides” (FMC Corporation, priority 2013, dated 2019)

Experiments:
[1] = test system: kochia; assay: Test A pre-/postemergence herbicide test; type: in vivo, Kochia scoparia
Procedure, shortened: (§1)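 Directed soil spray to seeded pots (preemergence) or spray onto one- to two-leaf seedlings 2–10 cm tall (postemergence); loam/sand substrate throughout. Evaluated visually after about 10 days against untreated plants, 0 = no effect, 100 = complete control.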

[2] = test system: ragweed; assay: Test A pre-/postemergence herbicide test; type: in vivo, Ambrosia elatior
Procedure, shortened: as §1

[3] = test system: giant foxtail; assay: Test A pre-/postemergence herbicide test; type: in vivo, Setaria faberii
Procedure, shortened: as §1

[4] = test system: blackgrass; assay: Test A postemergence herbicide test; type: in vivo, Alopecurus myosuroides
Procedure, shortened: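 Plants at the one- to two-leaf stage, 2–10 cm tall, grown in loam/sand pots, received postemergence sprays of the test chemicals. After about 10 days in the greenhouse, injury was scored visually against untreated controls on a 0–100 scale (0 none, 100 complete control).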

[5] = test system: ryegrass, Italian; assay: Test C pre-/postemergence herbicide test; type: in vivo, Lolium multiflorum
Procedure, shortened: (§2)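 Two application timings ran in parallel with identically formulated test chemicals (non-phytotoxic solvent, surfactant included): spray on seeded loam–sand soil, and spray on emerged plants 2 to 18 cm high. Evaluation at 13 to 15 days compared each species with controls, rated from 0 up to 100.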

[6] = test system: ragweed; assay: Test C pre-/postemergence herbicide test; type: in vivo, Ambrosia elatior
Procedure, shortened: as §2

[7] = test system: oat, wild; assay: Test C pre-/postemergence herbicide test; type: in vivo, Avena fatua; settings: Postemergence
Procedure, shortened: as §2

[8] = test system: velvetleaf; assay: Test C pre-/postemergence herbicide test; type: in vivo, Abutilon theophrasti
Procedure, shortened: as §2

[9] = Postemergence, 125 g ai/ha, 0 to 100 scale, 0 is no effect, 100 is complete control
[10] = Postemergence, 500 g ai/ha, 0 to 100 scale (0 no effect, 100 complete control)
[11] = Preemergence, 125 g ai/ha, 0 to 100 scale where 0 is no effect and 100 is complete control
[12] = preemergence, 500 g ai/ha, 0 to 100 scale, 0 is no effect and 100 is complete control
[13] = Postemergence, 125 g ai/ha, visual rating on 0 to 100 scale (0 no effect, 100 complete control), approx. 10 days
[14] = 125 g ai/ha, 0 to 100 scale, 0 is no effect, 100 is complete control
[15] = 500 g ai/ha, 0 to 100 scale (0 no effect, 100 complete control)
[16] = Postemergence, 31 g ai/ha, scale 0 to 100 (0 no effect, 100 complete control)
[17] = Postemergence, 62 g ai/ha, scale 0 (no effect) to 100 (complete control)
[18] = Postemergence, 125 g ai/ha, scale 0 to 100 (0 no effect, 100 complete control)
[19] = Postemergence, 250 g ai/ha, scale 0 to 100 (0 no effect, 100 complete control)
[20] = Preemergence, 31 g ai/ha, scale 0 to 100, 0 is no effect and 100 is complete control
[21] = Preemergence, 62 g ai/ha, scale 0 to 100 (0 no effect, 100 complete control)
[22] = Preemergence, 125 g ai/ha, scale 0 to 100 (0 no effect, 100 complete control)
[23] = 31 g ai/ha, scale 0 to 100 (0 no effect, 100 complete control)
[24] = 62 g ai/ha, scale 0 (no effect) to 100 (complete control)
[25] = 125 g ai/ha, scale 0 to 100 (0 no effect, 100 complete control)
[26] = 250 g ai/ha, scale 0 to 100 (0 no effect, 100 complete control)

SMILES: O=C1NCC(c2cc(F)cc(F)c2)C1C(=O)Nc1ccc(F)cc1F (racemic) [Compound 278]
- Plant response rating, Kochia [1, 9]: 0
- Plant response rating, Kochia [1, 10]: 0
- Plant response rating, Kochia [1, 11]: 0
- Plant response rating, Kochia [1, 12]: 0
- Plant response rating, Ragweed [2, 13]: 0
- Plant response rating, Ragweed [2, 10]: 0
- Plant response rating, Ragweed [2, 11]: 0
- Plant response rating, Ragweed [2, 12]: 0
- Plant response rating, Foxtail, Giant [3, 9]: 80
- Plant response rating, Foxtail, Giant [3, 10]: 80
- Plant response rating, Foxtail, Giant [3, 11]: 90
- Plant response rating, Foxtail, Giant [3, 12]: 90
- Plant response rating, Blackgrass [4, 14]: 30
- Plant response rating, Blackgrass [4, 15]: 60
- Plant response rating, Ryegrass, Italian [5, 16]: 0
- Plant response rating, Ryegrass, Italian [5, 17]: 0
- Plant response rating, Ryegrass, Italian [5, 18]: 0
- Plant response rating, Ryegrass, Italian [5, 19]: 0
- Ryegrass, Italian plant response rating [5, 20]: 0
- Ryegrass, Italian plant response rating [5, 21]: 0
- Plant response rating, Ryegrass, Italian [5, 22]: 0
- Plant response rating (scale of 0 to 100), Ryegrass, Italian ([5]; Preemergence, 250 g ai/ha): 0
- Plant response rating, Ragweed [6, 16]: 0
- Plant response rating, Ragweed [6, 17]: 0
- Plant response rating, Ragweed [6, 18]: 10
- Plant response rating, Ragweed [6, 19]: 0
- Ragweed plant response rating [6, 20]: 0
- Ragweed plant response rating [6, 21]: 0
- Plant response rating, Ragweed [6, 22]: 0
- Plant response rating (scale of 0 to 100), Ragweed ([6]; Preemergence, 250 g ai/ha): 0
- Plant response rating, Oat, Wild [7, 23]: 0
- Plant response rating, Oat, Wild [7, 24]: 0
- Plant response rating, Oat, Wild [7, 25]: 0
- Plant response rating, Oat, Wild [7, 26]: 0
- Plant response rating, Velvetleaf [8, 16]: 0
- Plant response rating, Velvetleaf [8, 17]: 0
- Plant response rating, Velvetleaf [8, 18]: 10
- Plant response rating, Velvetleaf [8, 19]: 20
- Velvetleaf plant response rating [8, 20]: 0
- Velvetleaf plant response rating [8, 21]: 0
- Plant response rating, Velvetleaf [8, 22]: 0
- Plant response rating (scale of 0 to 100), Velvetleaf ([8]; Preemergence, 250 g ai/ha): 0

SMILES: O=C1NCC(c2cc(F)cc(F)c2)C1C(=O)Nc1cccc(F)c1F (racemic) [Compound 279]
- Plant response rating, Kochia [1, 9]: 0
- Plant response rating, Kochia [1, 10]: 40
- Plant response rating, Kochia [1, 11]: 40
- Plant response rating, Kochia [1, 12]: 80
- Plant response rating, Ragweed [2, 13]: 0
- Plant response rating, Ragweed [2, 10]: 0
- Plant response rating, Ragweed [2, 11]: 0
- Plant response rating, Ragweed [2, 12]: 0
- Plant response rating, Foxtail, Giant [3, 9]: 80
- Plant response rating, Foxtail, Giant [3, 10]: 90
- Plant response rating, Foxtail, Giant [3, 11]: 90
- Plant response rating, Foxtail, Giant [3, 12]: 90
- Plant response rating, Blackgrass [4, 14]: 60
- Plant response rating, Blackgrass [4, 15]: 70
- Plant response rating, Ryegrass, Italian [5, 16]: 0
- Plant response rating, Ryegrass, Italian [5, 17]: 0
- Plant response rating, Ryegrass, Italian [5, 18]: 0
- Plant response rating, Ryegrass, Italian [5, 19]: 0
- Ryegrass, Italian plant response rating [5, 20]: 0
- Ryegrass, Italian plant response rating [5, 21]: 10
- Plant response rating, Ryegrass, Italian [5, 22]: 30
- Plant response rating (scale of 0 to 100), Ryegrass, Italian ([5]; Preemergence, 250 g ai/ha): 60
- Plant response rating, Ragweed [6, 16]: 15
- Plant response rating, Ragweed [6, 17]: 20
- Plant response rating, Ragweed [6, 18]: 35
- Plant response rating, Ragweed [6, 19]: 35
- Ragweed plant response rating [6, 20]: 0
- Ragweed plant response rating [6, 21]: 0
- Plant response rating, Ragweed [6, 22]: 10
- Plant response rating (scale of 0 to 100), Ragweed ([6]; Preemergence, 250 g ai/ha): 65
- Plant response rating, Oat, Wild [7, 23]: 0
- Plant response rating, Oat, Wild [7, 24]: 0
- Plant response rating, Oat, Wild [7, 25]: 0
- Plant response rating, Oat, Wild [7, 26]: 0
- Plant response rating, Velvetleaf [8, 16]: 0
- Plant response rating, Velvetleaf [8, 17]: 10
- Plant response rating, Velvetleaf [8, 18]: 10
- Plant response rating, Velvetleaf [8, 19]: 10
- Velvetleaf plant response rating [8, 20]: 0
- Velvetleaf plant response rating [8, 21]: 0
- Plant response rating, Velvetleaf [8, 22]: 0
- Plant response rating (scale of 0 to 100), Velvetleaf ([8]; Preemergence, 250 g ai/ha): 30
